Laboratory results reported in US7109225B2, “Substituted oxazole derivatives” (Hofmann-la Roche Inc., priority 2002, dated 2006).
pEC50, pIC50: −log10 of the molar value.

Columns and labels:
PPARγ [1] = biological target: T1, PPARγ (Mus musculus, UniProt P37238); experiment: Radioligand binding assay (scintillation proximity), GST-PPARγ-LBD fusion protein; set-up: PPARγ (aa 174 to 476); details: radioligand binding (SPA)
T1 sequence (P37238 204-505): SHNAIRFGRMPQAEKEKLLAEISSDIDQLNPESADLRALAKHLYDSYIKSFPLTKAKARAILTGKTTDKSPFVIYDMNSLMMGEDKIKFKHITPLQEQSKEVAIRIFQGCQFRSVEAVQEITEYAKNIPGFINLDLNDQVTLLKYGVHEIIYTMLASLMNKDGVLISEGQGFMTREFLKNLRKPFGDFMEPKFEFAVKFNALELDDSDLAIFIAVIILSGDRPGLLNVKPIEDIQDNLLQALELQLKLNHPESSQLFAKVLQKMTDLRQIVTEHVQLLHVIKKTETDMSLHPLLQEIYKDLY
Text: Background information on the performed assays can be found in: Nichols J S et al. “Development of a scintillation proximity assay for peroxisome proliferator-activated receptor gamma ligand binding domain”, (1998) Anal. Biochem. 257: 112–119.
(§1) Full-length cDNA clones for human PPARα and mouse PPARγ were obtained by RT-PCR from human adipose and mouse liver cRNA, respectively, cloned into plasmid vectors and verified by DNA sequencing. Bacterial and mammalian expression vectors were constructed to produce glutathione-s-transferase (GST) and Gal4 DNA binding domain proteins fused to the ligand binding domains (LBD) of PPARγ (aa 174 to 476) and PPARα (aa 167 to 469). To accomplish this, the portions of the cloned sequences encoding the LBDs were amplified from the full-length clones by PCR and then subcloned into the plasmid vectors. Final clones were verified by DNA sequence analysis.
Induction, expression, and purification of GST-LBD fusion proteins were performed in E. coli strain BL21 (pLysS) cells by standard methods (Ref: Current Protocols in Molecular Biology, Wiley Press, edited by Ausubel et al.).
Radioligand Binding Assay
PPARγ receptor binding was assayed in TKE50 (50 mM Tris-HCl, pH 8, 50 mM KCl, 2 mM EDTA, 0.1 mg/ml fatty acid-free BSA and 10 mM DTT). For each 96 well reaction an 140 ng equivalent of GST-PPARγ-LBD fusion protein was bound to 10 ug SPA beads (PharmaciaAmersham) in a final volume of 50 ul by shaking. The resulting slurry was incubated for 1 h at RT and centrifuged for 2 min at 1300 g. The supernatant containing unbound protein was removed and the semidry pellet containig the recptor-coated beads was resolved in 50 ul of TKE. For radioligand binding e.g. 10000 dpm 2(S)-(2-benzoyl-phenylamino)-3-{4-[1,1-ditritio-2-(5-methyl-2-phenyl-oxazol-4-yl)-ethoxy]-phenyl}-propionic acid in 50 ul were added, the reaction incubated at RT for 1 h and scintillation proximity counting performed. All binding assays were performed in 96 well plates and the amount of bound ligand measured on a Packard TopCount using OptiPlates (Packard). Nonspecific binding was determined in the presence of 10^−4 M unlabelled compound. Dose response curves were done in triplicates within a range of concentration from 10^−10 M to 10^−4 M.

PPARα = biological target: T2, PPARα (Homo sapiens, UniProt Q07869); experiment: Luciferase transcriptional reporter gene assay, BHK21 cells transfected with pFA-PPARα-LBD; type: cell-based; set-up: PPARα (aa 167 to 469); expressed in transfected cells; host or cells: BHK21 (ATCC CCL10); details: Gal4-PPARα-LBD
T2 sequence (Q07869 167-468 limits assumed): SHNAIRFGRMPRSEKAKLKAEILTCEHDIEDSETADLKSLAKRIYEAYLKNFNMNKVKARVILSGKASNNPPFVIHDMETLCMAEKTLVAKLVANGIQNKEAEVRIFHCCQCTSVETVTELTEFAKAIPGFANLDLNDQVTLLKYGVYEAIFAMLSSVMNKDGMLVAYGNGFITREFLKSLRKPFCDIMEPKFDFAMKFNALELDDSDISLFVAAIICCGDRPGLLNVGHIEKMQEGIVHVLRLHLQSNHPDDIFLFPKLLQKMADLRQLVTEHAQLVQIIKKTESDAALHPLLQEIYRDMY
Text: Full-length cDNA clones for human PPARα and mouse PPARγ were obtained by RT-PCR from human adipose and mouse liver cRNA, respectively, cloned into plasmid vectors and verified by DNA sequencing. […] To accomplish this, the portions of the cloned sequences encoding the LBDs were amplified from the full-length clones by PCR and then subcloned into the plasmid vectors. Final clones were verified by DNA sequence analysis.
(§2) Luciferase Transcriptional Reporter Gene Assays
(§3) Baby hamster kidney cells (BHK21 ATCC CCL10) were grown in DMEM medium containing 10% FBS at 37° C. in a 95%02:5%CO2 atmosphere. Cells were seeded in 6 well plates at a density of 10^5 Cells/well and then batch-transfected with either the pFA-PPARγ-LBD or pFA-PPARα-LBD expression plasmids plus a reporter plasmid and an expression plasmid encoding the secretable form of alkaline phosphatase (SEAP) as a normalization control. […] Six hours following transfection, the cells were harvested by trypsinization and seeded in 96 well plates at a density of 10^4 cells/well. After 24 hours to allow attachment of cells, the medium was removed and replaced with 100 ul of phenol red-free medium containing the test substances or control ligands (final DMSO concentration: 0.1%). Following incubation of the cells for 24 hours with substances, 50 ul of the supernatant was recovered and analyzed for SEAP activity (Roche Molecular Biochemicals). The remainder of the supernatant was discarded, 50 ul PBS was added per well followed by one volume of Luciferase Constant-Light Reagent (Roche Molecular Biochemicals) to lyse the cells and initiate the luciferase reaction. Luminescence for both SEAP and luciferase was measured in a Packard TopCount. Luciferase activity was normalized to the SEAP control and transcriptional activation in the presence of a test substance was expressed as fold-activation over cells incubated in the absence of the substance. EC50 values were calculated using the XLfit program (ID Business Solutions Ltd. UK).

PPARγ [2] = biological target: T1, PPARγ; experiment: Luciferase transcriptional reporter gene assay, BHK21 cells transfected with pFA-PPARγ-LBD; type: cell-based; set-up: PPARγ (aa 174 to 476); expressed in transfected cells; host or cells: BHK21 (ATCC CCL10); details: Gal4-PPARγ-LBD
Text: as §1, §2, §3

Which melting point does the source give for `Cc1oc(C(C)(C)C)nc1CCOc1ccc(CC(OC(C)C)C(=O)O)c2sccc12` (stereo not drawn) [Example 8, 3-{4-[2-(2-tert-Butyl-5-methyl-oxazol-4-yl)-ethoxy]-benzo[b]thiophen-7-yl}-2-isopropoxy-propionic acid] here?
Its melting point is 159 to 160 °C.

And the pIC50 (PPARγ [1])?
Its pIC50 is 7.16.

And the pEC50 (PPARα)?
The pEC50 was 7.57.

What about the pEC50 (PPARγ [2]) of the same molecule?
Its pEC50 is 7.72.

Which melting point does the source give for `CCOC(Cc1ccc(OCc2nc(C(C)(C)C)oc2C)c2ccsc12)C(=O)O` (stereo not drawn) [Example 19, 3-[4-(2-tert-Butyl-5-methyl-oxazol-4-ylmethoxy)-benzo[b]thiophen-7-yl]-2-ethoxy-propionic acid] here?
Its melting point is 179 to 180 °C.

Which melting point does the source give for `CCOC(Cc1ccc(OCc2nc(C(C)(C)C)oc2C)c2ccccc12)C(=O)O` (stereo not drawn) [Example 22, 3-[4-(2-tert-Butyl-5-methyl-oxazol-4-ylmethoxy)-naphthalen-1-yl]-2-ethoxy-propionic acid] here?
The melting point was 185 to 186 °C.

Which melting point does the source give for `COC(Cc1ccc(OCCCc2nc(C(C)(C)C)oc2C)c2ccsc12)C(=O)O` (racemic) [Example 58, [rac]-3-{4-[3-(2-tert-Butyl-5-methyl-oxazol-4-yl)-propoxy]-benzo[b]thiophen-7-yl}-2-methoxy-propionic acid] here?
The melting point was 110 to 113 °C.

Which melting point does the source give for `Cc1oc(C2CC2)nc1COc1ccc(CC(OC(C)C)C(=O)O)c2sccc12` (stereo not drawn) [Example 42, 3-[4-(2-Cyclopropyl-5-methyl-oxazol-4-ylmethoxy)-benzo[b]thiophen-7-yl]-2-isopropoxy-propionic acid] here?
Its melting point is 71 to 72 °C.

Which melting point does the source give for `CCOC(Cc1ccc(OCc2nc(C3CC3)oc2C)c2ccccc12)C(=O)O` (stereo not drawn) [Example 38, 3-[4-(2-Cyclopropyl-5-methyl-oxazol-4-ylmethoxy)-naphthalen-1-yl]-2-ethoxy-propionic acid] here?
Its melting point is 166 to 168 °C.

Which melting point does the source give for `CCOC(Cc1ccc(OCCc2nc(CC)oc2C)c2ccsc12)C(=O)O` (racemic) [Example 66, [rac]-2-Ethoxy-3-{4-[2-(2-ethyl-5-methyl-oxazol-4-yl)-ethoxy]-benzo[b]thiophen-7-yl}-propionic acid] here?
The melting point was 84 to 85 °C.

Which melting point does the source give for `COC(Cc1ccc(OCCc2nc(C(C)(C)C)oc2C)c2ccccc12)C(=O)O` (stereo not drawn) [Example 13, 3-{4-[2-(2-tert-Butyl-5-methyl-oxazol-4-yl)-ethoxy]-naphthalen-1-yl}-2-methoxy-propionic acid] here?
The melting point was 141 to 143 °C.

With `CCOC(Cc1ccc(OCc2nc(C(C)(C)C)oc2C)c(C)c1)C(=O)O` (stereo not drawn) [Example 21, 3-[4-(2-tert-Butyl-5-methyl-oxazol-4-ylmethoxy)-3-methyl-phenyl]-2-ethoxy-propionic acid] as the molecule, how does the melting point read?
Its melting point is 95 to 97 °C.

Which melting point does the source give for `Cc1oc(C(C)(C)C)nc1COc1ccc(CC(OC(C)C)C(=O)O)c2sccc12` (stereo not drawn) [Example 23, 3-[4-(2-tert-Butyl-5-methyl-oxazol-4-ylmethoxy)-benzo[b]thiophen-7-yl]-2-isopropoxy-propionic acid] here?
The melting point was 166 to 167 °C.

For `CCCOC(Cc1ccc(OCc2nc(C3CC3)oc2C)c2ccsc12)C(=O)O` (stereo not drawn) [Example 41, 3-[4-(2-Cyclopropyl-5-methyl-oxazol-4-ylmethoxy)-benzo[b]thiophen-7-yl]-2-propoxy-propionic acid], which melting point is on record?
The melting point was 88 to 89 °C.

With `CCCOC(Cc1ccc(OCCc2nc(C3CC3)oc2C)c2ccsc12)C(=O)O` (stereo not drawn) [Example 31, 3-{4-[2-(2-Cyclopropyl-5-methyl-oxazol-4-yl)-ethoxy]-benzo[b]thiophen-7-yl}-2-propoxy-propionic acid] as the molecule, how does the melting point read?
Its melting point is 61 to 63 °C.

And the pIC50 (PPARγ [1])?
The pIC50 was 6.69.

What about the pEC50 (PPARα) of the same molecule?
Its pEC50 is 7.21.

What about the pEC50 (PPARγ [2]) of the same molecule?
The pEC50 was 7.10.

With `CCOC(Cc1ccc(OCCc2nc(C(CC)CC)oc2C)c2ccsc12)C(=O)O` (racemic) [Example 68, [rac]-2-Ethoxy-3-(4-{2-[2-(1-ethyl-propyl)-5-methyl-oxazol-4-yl]-ethoxy}-benzo[b]thiophen-7-yl)-propionic acid] as the molecule, how does the melting point read?
Its melting point is 120 to 121 °C.

For `CCOC(Cc1ccc(OCc2nc(C3CC3)oc2C)c2ccsc12)C(=O)O` (stereo not drawn) [Example 43, 3-[4-(2-Cyclopropyl-5-methyl-oxazol-4-ylmethoxy)-benzo[b]thiophen-7-yl]-2-ethoxy-propionic acid], which melting point is on record?
The melting point was 153 to 154 °C.

For `C=CCCO[C@@H](Cc1ccc(OCCc2nc(C(C)(C)C)oc2C)c2ccsc12)C(=O)O` [Example 7, (S)-2-But-3-enyloxy-3-{4-[2-(2-tert-butyl-5-methyl-oxazol-4-yl)-ethoxy]-benzo[b]thiophen-7-yl}-propionic acid], which melting point is on record?
Its melting point is 70 to 71 °C.

With `COC(Cc1ccc(OCCc2nc(C(C)(C)C)oc2C)c2ccsc12)C(=O)O` (stereo not drawn) [Example 10, 3-{4-[2-(2-tert-Butyl-5-methyl-oxazol-4-yl)-ethoxy]-benzo[b]thiophen-7-yl}-2-methoxy-propionic acid] as the molecule, how does the melting point read?
The melting point was 163 to 165 °C.

Which melting point does the source give for `CCOC(Cc1ccc(OCCc2nc(C(C)(C)C)oc2C)c2ccsc12)C(=O)O` (stereo not drawn) [Example 9, 3-{4-[2-(2-tert-Butyl-5-methyl-oxazol-4-yl)-ethoxy]-benzo[b]thiophen-7-yl}-2-ethoxy-propionic acid] here?
Its melting point is 152 to 153 °C.

Which melting point does the source give for `COC(Cc1cc(C)c(OCCc2nc(C(C)(C)C)oc2C)c(C)c1)C(=O)O` (stereo not drawn) [Example 15, 3-{4-[2-(2-tert-Butyl-5-methyl-oxazol-4-yl)-ethoxy]-3,5-dimethyl-phenyl}-2-methoxy-propionic acid] here?
The melting point was 78 to 80 °C.

What does the source list for `CCCOC(Cc1ccc(OCCc2nc(CC(C)(C)C)oc2C)c2ccccc12)C(=O)O` (stereo not drawn) [Example 33, 3-(4-{2-[2-(2,2-Dimethyl-propyl)-5-methyl-oxazol-4-yl]-ethoxy}-naphthalen-1-yl)-2-propoxy-propionic acid]?
pIC50 (PPARγ [1]): 6.79; pEC50 (PPARα): 8.22; pEC50 (PPARγ [2]): 7.17
